The target in data set [1] is T1, human glucagon receptor (GcgR) (Homo sapiens, UniProt P47871).
T1 construct: expressed in transfected cells; host or cells: HEK293 (membranes)
The experiment in a line: Radioligand competition binding (SPA), human GcgR membranes. The following applies: HEK293 membranes, SPA, bacitracin present; mean; read-out: Ki, GcgR. From the text: (§1) Radioligand competition binding assays are run to determine the equilibrium dissociation constant for exemplary compounds and comparator molecules.
(§2) Competition curves are plotted as the percent specific inhibition (y-axis) versus log concentration of compound (x-axis) and analyzed using a four parameter nonlinear regression fit with variable slope (ABase or Genedata).
(Displacement assays read how much labelled ligand stays bound in the presence of the test substance.)

The target of data set [2] is T2, human GIP receptor (GIPR) (Homo sapiens, UniProt P48546).
T2 construct: expressed in transfected cells; host or cells: HEK293 (membranes)
T2 sequence (P48546 22-466): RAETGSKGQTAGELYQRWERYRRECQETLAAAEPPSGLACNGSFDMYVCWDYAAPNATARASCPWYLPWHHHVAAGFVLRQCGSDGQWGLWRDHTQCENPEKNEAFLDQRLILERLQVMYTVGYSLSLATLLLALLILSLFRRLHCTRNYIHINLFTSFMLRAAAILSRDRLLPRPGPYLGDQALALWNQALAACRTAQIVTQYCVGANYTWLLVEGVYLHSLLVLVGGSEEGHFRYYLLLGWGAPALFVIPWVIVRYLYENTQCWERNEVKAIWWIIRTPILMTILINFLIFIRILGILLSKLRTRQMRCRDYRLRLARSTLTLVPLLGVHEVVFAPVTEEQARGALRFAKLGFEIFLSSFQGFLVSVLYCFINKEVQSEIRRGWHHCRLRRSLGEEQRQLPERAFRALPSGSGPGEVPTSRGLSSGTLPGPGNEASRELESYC
The experiment in a line: Radioligand competition binding (SPA), human GIPR membranes. The following applies: HEK293 membranes, SPA, bacitracin present; mean; read-out: Ki, GIPR.
Excerpt: as §1, §2

For another data set, the target named is T3, GLP-1 receptor (GLP-1R) (Homo sapiens, UniProt P43220).
T3 construct: expressed in transfected cells; host or cells: HEK293 (membranes)
T3 sequence (P43220 24-463): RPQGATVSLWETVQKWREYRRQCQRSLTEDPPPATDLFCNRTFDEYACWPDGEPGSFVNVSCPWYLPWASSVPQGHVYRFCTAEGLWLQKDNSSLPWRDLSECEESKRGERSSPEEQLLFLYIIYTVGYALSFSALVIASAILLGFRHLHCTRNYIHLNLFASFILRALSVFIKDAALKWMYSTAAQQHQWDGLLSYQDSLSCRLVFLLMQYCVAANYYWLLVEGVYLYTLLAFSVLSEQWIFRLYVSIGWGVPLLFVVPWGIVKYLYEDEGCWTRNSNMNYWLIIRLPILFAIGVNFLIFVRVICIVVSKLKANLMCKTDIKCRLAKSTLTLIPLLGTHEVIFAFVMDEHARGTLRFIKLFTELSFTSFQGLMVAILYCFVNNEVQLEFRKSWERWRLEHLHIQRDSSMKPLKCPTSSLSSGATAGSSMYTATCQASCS
The experiment in a line: Radioligand competition binding (SPA), human GLP-1R membranes. To be noted: HEK293 membranes, SPA, bacitracin present; mean; read-out: Ki, GLP-1R.
Excerpt: as §1, §2

For another data set, the target named is T4, hGcgR (Homo sapiens, UniProt P47871).
T4 construct: expressed in transfected cells; host or cells: HEK293
T4 sequence (P47871 26-477): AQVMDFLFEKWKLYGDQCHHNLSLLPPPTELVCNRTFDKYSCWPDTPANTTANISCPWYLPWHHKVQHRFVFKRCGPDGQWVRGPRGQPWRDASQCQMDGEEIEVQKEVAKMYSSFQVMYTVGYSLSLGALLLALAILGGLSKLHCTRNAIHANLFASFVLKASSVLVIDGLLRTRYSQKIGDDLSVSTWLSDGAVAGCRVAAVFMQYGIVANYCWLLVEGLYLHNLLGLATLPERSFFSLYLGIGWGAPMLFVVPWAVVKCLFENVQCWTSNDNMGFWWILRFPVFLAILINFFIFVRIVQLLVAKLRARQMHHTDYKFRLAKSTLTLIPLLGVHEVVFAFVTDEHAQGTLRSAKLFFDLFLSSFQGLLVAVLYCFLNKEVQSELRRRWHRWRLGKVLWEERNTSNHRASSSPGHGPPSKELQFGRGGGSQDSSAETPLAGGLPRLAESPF
The experiment in a line: cAMP assay in HEK293 cells expressing hGcgR, 0.1% casein. Type of data set: cell-based. The following applies: in the presence of 0.1% casein; read-out: cAMP EC50, GcGR. On the technique in general: Cyclic AMP is a second messenger, typically raised through Gs and lowered through Gi signalling.

Another data set addresses T5, hGIPR (Homo sapiens, UniProt P48546).
T5 construct: expressed in transfected cells; host or cells: HEK293
T5 sequence (P48546 22-466): T2 sequence (P48546 22-466)
The experiment in a line: cAMP assay in HEK293 cells expressing hGIPR, 0.1% casein. Type of data set: cell-based. The following applies: in the presence of 0.1% casein; read-out: cAMP EC50, GIPR.

The target of the next data set is hGLP-1R (Homo sapiens, UniProt P43220). The experiment in a line: cAMP assay in HEK293 cells expressing hGLP-1R, 0.1% casein. Type of data set: cell-based. The following applies: in the presence of 0.1% casein; read-out: cAMP EC50, GLP-1R.
Chain of hGLP-1R (P43220 24-463): as the sequence (P43220 24-463) above
The conditions of data set [3]: rat, in vivo, sc, 100 nmol/kg.
Procedure: (§3) The pharmacokinetics of the exemplary analogs are evaluated following a single subcutaneous administration of 100 nM/kg to male Sprague Dawley rats. Blood samples are collected over 120 hours, and resulting individual plasma concentrations are used to calculate pharmacokinetic parameters. Peptide plasma (K3 EDTA) concentrations are determined using a qualified LC/MS method that measured the intact mass of the analog. Each peptide and an analog as an internal standard are extracted from 100% specie specified plasma using methanol with 0.1% formic acid. A Thermo Q-Exactive, High Resolution Instrument, and a Thermo Easy Spray PepMap are combined for LC/MS detection.
The nature of another data set: in vivo. The following applies: male, Sprague-Dawley, rat, sc, 100 nmol/kg.

*1 amine or outer side, *2 acyl side, *3 side chain or, on linkers, in order; H or OH if unused. Where a SMILES comes first, the peptide text is derived from it. Side-chain parts run from the residue outwards. [ ]: non-standard residue; d: D form. The star is where a group is joined. C20 diacid = O=C(O)CCCCCCCCCCCCCCCCCCC(=O)*; γGlu = O=C(O)[C@H](CCC(=O)[*:2])N[*:1]; αMeL = CC(C)C[C@](C)(N)C(=O)O; AEEA = NCCOCCOCC(=O)O; Aib = CC(C)(N)C(=O)O

T1 sequence (P47871 26-477): as the sequence (P47871 26-477) above
Procedure for in vivo: as §3

As a reminder, the Ki is a dissociation constant, usually derived from enzyme kinetics or from competition with a known ligand. For orientation: EC50 means the concentration giving half of the maximal effect. By CL/F is commonly meant clearance divided by bioavailability, as obtained after extravascular dosing. The Tmax is the time from dosing to the highest level. As usually defined, the half-life is the time needed for the level to fall by half in the phase considered. With `CC[C@H](C)[C@H](NC(=O)[C@H](Cc1ccccc1)NC(=O)[C@H](C)NC(=O)C(C)(C)NC(=O)[C@H](CCC(N)=O)NC(=O)[C@H](C)NC(=O)[C@H](CCCCNC(=O)COCCOCCNC(=O)CC[C@H](NC(=O)CCCCCCCCCCCCCCCCCCC(=O)O)C(=O)O)NC(=O)[C@H](CCCCN)NC(=O)[C@H](CC(=O)O)NC(=O)[C@H](CC(C)C)NC(=O)[C@](C)(CC(C)C)NC(=O)[C@@H](NC(=O)[C@H](CO)NC(=O)[C@H](Cc1ccc(O)cc1)NC(=O)[C@H](CC(=O)O)NC(=O)[C@H](CO)NC(=O)[C@@H](NC(=O)[C@H](Cc1ccccc1)NC(=O)[C@@H](NC(=O)CNC(=O)[C@H](CCC(N)=O)NC(=O)C(C)(C)NC(=O)[C@@H](N)Cc1ccc(O)cc1)[C@@H](C)O)[C@@H](C)O)[C@@H](C)CC)C(=O)N[C@@H](CCC(=O)O)C(=O)N[C@@H](Cc1ccc(O)cc1)C(=O)N[C@@H](CC(C)C)C(=O)N[C@@H](CC(C)C)C(=O)N[C@@H](CCC(=O)O)C(=O)NC(C)(C)C(=O)NCC(=O)N1CCC[C@H]1C(=O)N[C@@H](CO)C(=O)N[C@@H](CO)C(=O)NCC(=O)N[C@@H](C)C(=O)N1CCC[C@H]1C(=O)N1CCC[C@H]1C(=O)N1CCC[C@H]1C(=O)N[C@@H](CO)C(N)=O` [Example 13] (H-Y[Aib]QGTFTSDYSI[αMeL]LDKK([AEEA-γGlu-C20 diacid])AQ[Aib]AFIEYLLE[Aib]GPSSGAPPPS-NH2), the Ki came out at 1.91 nM in data set [1], 0.0452 nM in data set [2] and 6.43 nM at GLP-1 receptor (GLP-1R). Further, the EC50 at hGcgR was 0.0815 nM; on hGIPR, 0.0391 nM; on hGLP-1R, 0.125 nM. For the same molecule, the AUCINF_D_obs in data set [3] stood at 205.7 hr*kg*nmol/L/nmol. In addition, in “in vivo”, the CL/F was 4.9 mL/h/kg. The Tmax in the data set “in vivo” was 20 h. In the data set “in vivo”, this molecule showed a half-life of 1300 min.

On to `CC[C@H](C)[C@H](NC(=O)[C@H](Cc1ccccc1)NC(=O)[C@H](C)NC(=O)C(C)(C)NC(=O)[C@H](CCC(N)=O)NC(=O)[C@H](C)NC(=O)[C@H](CCCCNC(=O)COCCOCCNC(=O)CC[C@H](NC(=O)CCCCCCCCCCCCCCCCCCC(=O)O)C(=O)O)NC(=O)[C@H](CCCCN)NC(=O)[C@H](CC(=O)O)NC(=O)[C@H](CC(C)C)NC(=O)[C@H](CC(C)C)NC(=O)[C@@H](NC(=O)[C@H](CO)NC(=O)[C@H](Cc1ccc(O)cc1)NC(=O)[C@H](CC(=O)O)NC(=O)[C@H](CO)NC(=O)[C@@H](NC(=O)[C@H](Cc1ccccc1)NC(=O)[C@@H](NC(=O)CNC(=O)[C@H](CCC(N)=O)NC(=O)C(C)(C)NC(=O)[C@@H](N)Cc1ccc(O)cc1)[C@@H](C)O)[C@@H](C)O)[C@@H](C)CC)C(=O)N[C@@H](CCC(=O)O)C(=O)N[C@@H](Cc1ccc(O)cc1)C(=O)N[C@@H](CC(C)C)C(=O)N[C@@H](CC(C)C)C(=O)N[C@@H](CCC(=O)O)C(=O)NC(C)(C)C(=O)NCC(=O)N1CCC[C@H]1C(=O)N[C@@H](CO)C(=O)N[C@@H](CO)C(=O)NCC(=O)N[C@@H](C)C(=O)N1CCC[C@H]1C(=O)N1CCC[C@H]1C(=O)N1CCC[C@H]1C(=O)N[C@@H](CO)C(N)=O` [Example 20] (H-Y[Aib]QGTFTSDYSILLDKK([AEEA-γGlu-C20 diacid])AQ[Aib]AFIEYLLE[Aib]GPSSGAPPPS-NH2; N-terminus assumed), for which the values for the Ki (in data set [1]; in data set [2]; at GLP-1 receptor (GLP-1R)) were 3.76 nM, 0.109 nM and 9.23 nM, respectively. The EC50 at hGcgR is 0.0641 nM; at hGIPR it was 0.0572 nM; at hGLP-1R it was 0.149 nM.

For the origin of these results see patent US11542313B2, “Incretin analogs and uses thereof” (Eli Lilly and Company, priority 2017, dated 2023).
